Laboratory results as given in patent US11753408B2, “Compounds and method for blocking transmission of malarial parasite” (The United States of America, as represented by the …, priority 2016, dated 2023).

Columns and labels:
[1] = system: Stage III-V gametocytes (blood stage P. falciparum parasites); experiment: In vitro drug activity on gametocytes (AlamarBlue viability assay); assay type: cell-based, Plasmodium falciparum; details: read-out: Gametocyte EC50
Outline: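 Viability was measured by AlamarBlue fluorescence (Ex 525/Em 598 nm) after 24 h dye incubation following 72 h compound exposure at 37° C, 5% CO2. Gametocytes, stage III–V from strains 3D7, HB3 and Dd2, were NAG/Percoll-enriched and plated at 20,000 cells/well.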

[2] = system: Asexual parasites of P. falciparum strain 3D7; experiment: In vitro drug activity on asexual parasites (SYBR Green assay); assay type: cell-based, Plasmodium falciparum
Outline: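 SYBR Green I fluorescence (ex 490, em 520 nm) was read after freeze-thaw lysis and 30 min staining at room temperature. Before that, drug-treated cultures (0.5% parasitemia, 2% hematocrit, DMSO ≤0.5%) were incubated 72 h, in duplicate.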

mTOR = mTOR (Homo sapiens, UniProt P42345); experiment: mTOR activity (no method described); assay type: biochemical
[3] = Microsomal stability (rat); assay type: in vitro ADME; details: rat microsomes
Solubility at pH 7.4 = assay type: physicochemical
PAMPA permeability = assay type: in vitro ADME

SMILES | EC50 [1] | EC50 [2] | mTOR (mTOR) | Microsomal Stability (rat) T1/2 [3] | Sol @ pH 7.4 (Solubility at pH 7.4) | PAMPA Permeability (PAMPA permeability)
CN1CCN(C(=O)c2ccc(-n3c(=O)ccc4cnc5ccc(-c6ccc(Cl)cc6)cc5c43)cc2)CC1 [Compound 102] | 116 nM | 186 nM | 5191 nM | 5 min | 7.5 ug/mL | 1080 ×10⁻⁶ cm/s
O=C(c1ccc(-n2c(=O)ccc3cnc4ccc(-c5ccc(Cl)cc5)cc4c32)cc1)N1CCNCC1 [Compound 103] | 71.3 nM | 74.3 nM | 2997 nM | 10.5 min | 6.3 ug/mL | 76.1 ×10⁻⁶ cm/s
O=C(c1ccc(-n2c(=O)ccc3cnc4ccc(-c5ccc(Cl)cc5)cc4c32)cc1)N1CCCCC1 [Compound 104] | 194 nM | 215 nM | 2680 nM | 1.4 min | <1.0 ug/mL | 389 ×10⁻⁶ cm/s
O=C(c1ccc(-n2c(=O)ccc3cnc4ccc(-c5ccc(Cl)cc5)cc4c32)cc1)N(CCO)CCO [Compound 105] | 94.3 nM | 47.9 nM | 779.9 nM | 5.9 min | 14.8 ug/mL | 285 ×10⁻⁶ cm/s
O=C(c1ccc(-n2c(=O)ccc3cnc4ccc(-c5ccc(Cl)cc5)cc4c32)cc1)N1CCCC1 [Compound 106] | 126 nM | 64 nM | 1735 nM | 2.1 min | <1.0 ug/mL | 621 ×10⁻⁶ cm/s
O=C(c1ccc(-n2c(=O)ccc3cnc4ccc(-c5ccc(F)cc5)cc4c32)cc1)N1CCOCC1 [Compound 107] | 65.9 nM | 32.3 nM | 541.4 nM | 6.9 min | <1.0 ug/mL | 10.1 ×10⁻⁶ cm/s
O=C(c1ccc(-n2c(=O)ccc3cnc4ccc(-c5ccc(Cl)cc5)cc4c32)cc1)N1CCC1 [Compound 108] | 59.1 nM | 61.4 nM | 1165 nM | <1.0 min | <1.0 ug/mL | 119 ×10⁻⁶ cm/s
O=C(c1ccc(-n2c(=O)ccc3cnc4ccc(-c5ccc(Cl)cc5)cc4c32)cc1)N1CCN(CCO)CC1 [Compound 109] | 18 nM | 60.7 nM | 3260 nM | 12.3 min | 4.2 ug/mL | 227 ×10⁻⁶ cm/s
CNC(=O)c1ccc(-n2c(=O)ccc3cnc4ccc(-c5ccc(Cl)cc5)cc4c32)cc1Cl [Compound 115] | 6.21 nM | 8.14 nM | 229.4 nM | 9 min | <1.0 ug/mL | < 1 ×10⁻⁶ cm/s
O=C(c1ccc(-n2c(=O)ccc3cnc4ccc(-c5ccc(Cl)cc5)cc4c32)cc1Cl)N1CCOCC1 [Compound 116] | 65 nM | 22 nM | 454.6 nM | <1.0 min | <1.0 ug/mL | 383 ×10⁻⁶ cm/s
O=C(c1ccc(-n2c(=O)ccc3cnc4ccc(-c5ccc(Cl)cc5)cc4c32)cc1C(F)(F)F)N1CCOCC1 [Compound 126] | 118 nM | 24 nM | 372.4 nM | 1.7 min | <1.0 ug/mL | 1240 ×10⁻⁶ cm/s
O=C1Cc2cc(-c3ccc4ncc5ccc(=O)n(-c6ccc(C(=O)N7CCOCC7)cc6)c5c4c3)ccc2N1 [Compound 127] | 169 nM | 105 nM | 338.7 nM | 12.2 min | 7.3 ug/mL | 9.1 ×10⁻⁶ cm/s
O=C(c1ccc(-n2c(=O)ccc3cnc4ccc(-c5cccc(O)c5)cc4c32)cc1)N1CCOCC1 [Compound 128] | 31.4 nM | 6.05 nM | 310.6 nM | 12.7 min | 1.5 ug/mL | 735 ×10⁻⁶ cm/s
O=C1NCc2cc(-c3ccc4ncc5ccc(=O)n(-c6ccc(C(=O)N7CCOCC7)cc6)c5c4c3)ccc21 [Compound 129] | 680 nM | 1440 nM | 856.7 nM | >30.0 min | 20.3 ug/mL | 5.4 ×10⁻⁶ cm/s
Nc1cccc(-c2ccc3ncc4ccc(=O)n(-c5ccc(C(=O)N6CCOCC6)cc5)c4c3c2)c1 [Compound 130] | 72.2 nM | 20.2 nM | 202.1 nM | >30.0 min | 9.2 ug/mL | 467 ×10⁻⁶ cm/s
O=C(O)c1cccc(-c2ccc3ncc4ccc(=O)n(-c5ccc(C(=O)N6CCOCC6)cc5)c4c3c2)c1 [Compound 131] | 17400 nM | 17500 nM | 1557 nM | >30.0 min | >75.0 ug/mL | 1.9 ×10⁻⁶ cm/s
CCN(CC)C(=O)c1ccc(-n2c(=O)ccc3cnc4ccc(-c5ccc(Cl)cc5)cc4c32)cc1 [Compound 132] | 344 nM | 63.1 nM | 736.2 nM | <1.0 min | <1.0 ug/mL | 2320 ×10⁻⁶ cm/s
N#Cc1cc(NC(=O)c2ccc(-n3c(=O)ccc4cnc5ccc(-c6ccc(Cl)cc6)cc5c43)cc2)ccc1F [Compound 133] | 10100 nM | 4000 nM | inactive | >30.0 min | <1.0 ug/mL | < 5.4 ×10⁻⁶ cm/s
O=C(c1ccc(-n2c(=O)ccc3cnc4ccc(-c5ccc(Cl)cc5O)cc4c32)cc1)N1CCOCC1 [Compound 134] | 256 nM | 72.7 nM | 2007 nM | 10.5 min | <1.0 ug/mL | 142 ×10⁻⁶ cm/s
Nc1cc(Cl)ccc1-c1ccc2ncc3ccc(=O)n(-c4ccc(C(=O)N5CCOCC5)cc4)c3c2c1 [Compound 136] | 733 nM | 94.5 nM | 3591 nM | 7.8 min | 8.6 ug/mL | 1290 ×10⁻⁶ cm/s
O=C(c1ccc(-n2c(=O)ccc3cnc4ccc(-c5ccc(Cl)cc5)cc4c32)cc1)N1CC2CCC(C1)O2 [Compound 138] | 277 nM | 173 nM | 1278 nM | 4.8 min | <1.0 ug/mL | 891 ×10⁻⁶ cm/s
O=C(c1ccc(-n2c(=O)ccc3cnc4ccc(-c5ccc(Cl)cc5)cc4c32)cc1)N1C2CCC1CC(O)C2 (stereo not drawn) [Compound 139] | 153 nM | 20.6 nM | 405.1 nM | 4.3 min | <1.0 ug/mL | 238 ×10⁻⁶ cm/s
CN1CC2CC1CN2C(=O)c1ccc(-n2c(=O)ccc3cnc4ccc(-c5ccc(Cl)cc5)cc4c32)cc1 (stereo not drawn) [Compound 140] | 272 nM | 59.2 nM | 6373 nM | 9.6 min | >77.0 ug/mL | 1390 ×10⁻⁶ cm/s
CN1CC2CN(C(=O)c3ccc(-n4c(=O)ccc5cnc6ccc(-c7ccc(Cl)cc7)cc6c54)cc3)CC2C1 (stereo not drawn) [Compound 141] | 260 nM | 47.5 nM | 8043 nM | 4.2 min | 66.5 ug/mL | 1500 ×10⁻⁶ cm/s
